Reference: ChEMBL document CHEMBL5518238, “Structure-Activity Relationship (SAR) Studies of Novel Monovalent AR/AR-V7 Dual Degraders with Potent Efficacy against Advanced Prostate Cancer” (J Med Chem, 2024)
The source made the active and inactive calls. The calls are words filed in the database; no cut-off is given here.

What was measured:
[1] = AUC (0 to t) in Sprague-Dawley rat at 5 mg/kg, iv by LC-MS/MS analysis; assay type: ADME, organism-based; conditions: in vivo
[2] = tested on: CWR22R; assay: Drug localization in nucleus of human 22Rv1 cells at 5 uM incubated for 24 hrs by DAPI staining based immunofluorescence analysis; assay type: functional, cell-based
[3] = Oral bioavailability in Sprague-Dawley rat at 50 mg/kg by LC-MS/MS analysis; assay type: ADME, organism-based; conditions: in vivo
[4] = Half life in Sprague-Dawley rat at 5 mg/kg, iv by LC-MS/MS analysis; assay type: ADME, organism-based; conditions: in vivo
[5] = tested on: CWR22R; assay: Antitumor activity against human 22Rv1 cells xenografted in NSG mouse assessed as tumor growth inhibition at 30 mg/kg, IG administered once daily for 21 days; assay type: functional; conditions: 22Rv1, po, 504 h, time 21 day, read-out: TGI
[6] = Toxicity in NSG mouse xenografted with human 22Rv1 cells assessed as liver damage t at 30 mg/kg, IG administered once daily for 21 days by H and E staining based analysis; assay type: organism-based, CWR22R; conditions: in vivo, po, 504 h, time 21 day
[7] = tested on: Androgen receptor (Homo sapiens), P10275 [UNDEFINED MUTATION]; assay: Induction of AR-V7 degradation in human 22Rv1 cells at 20 uM incubated for 24 hrs in presence of Bortezomib by Western blot analysis; assay type: cell-based
[8] = tested on: CWR22R; assay: Downregulation of KLK2 mRNA expression in human 22Rv1 cells incubated for 24 hrs by qRT-PCR analysis; assay type: functional, cell-based; conditions: dose 5-10 µM
[9] = Toxicity in NSG mouse xenografted with human 22Rv1 cells assessed as effect on body weight at 30 mg/kg, IG administered once daily for 21 days; assay type: organism-based, CWR22R; conditions: in vivo, po, 504 h, time 21 day
[10] = MRT (0 to infinity) in Sprague-Dawley rat at 50 mg/kg, po by LC-MS/MS analysis; assay type: ADME, organism-based; conditions: in vivo
[11] = tested on: CWR22R; assay: Downregulation of AR expression in human 22Rv1 cells at 5 uM incubated for 24 hrs by Western blot analysis; assay type: functional, cell-based
[12] = target: T1, Androgen receptor (Homo sapiens) (UniProt P10275); assay: Induction of AR degradation in human LNCaP cells at 5 uM by Western blot analysis; assay type: cell-based; conditions: time <= 24.0 hrs, TDE = time-dependent effect
T1 sequence (whole entry): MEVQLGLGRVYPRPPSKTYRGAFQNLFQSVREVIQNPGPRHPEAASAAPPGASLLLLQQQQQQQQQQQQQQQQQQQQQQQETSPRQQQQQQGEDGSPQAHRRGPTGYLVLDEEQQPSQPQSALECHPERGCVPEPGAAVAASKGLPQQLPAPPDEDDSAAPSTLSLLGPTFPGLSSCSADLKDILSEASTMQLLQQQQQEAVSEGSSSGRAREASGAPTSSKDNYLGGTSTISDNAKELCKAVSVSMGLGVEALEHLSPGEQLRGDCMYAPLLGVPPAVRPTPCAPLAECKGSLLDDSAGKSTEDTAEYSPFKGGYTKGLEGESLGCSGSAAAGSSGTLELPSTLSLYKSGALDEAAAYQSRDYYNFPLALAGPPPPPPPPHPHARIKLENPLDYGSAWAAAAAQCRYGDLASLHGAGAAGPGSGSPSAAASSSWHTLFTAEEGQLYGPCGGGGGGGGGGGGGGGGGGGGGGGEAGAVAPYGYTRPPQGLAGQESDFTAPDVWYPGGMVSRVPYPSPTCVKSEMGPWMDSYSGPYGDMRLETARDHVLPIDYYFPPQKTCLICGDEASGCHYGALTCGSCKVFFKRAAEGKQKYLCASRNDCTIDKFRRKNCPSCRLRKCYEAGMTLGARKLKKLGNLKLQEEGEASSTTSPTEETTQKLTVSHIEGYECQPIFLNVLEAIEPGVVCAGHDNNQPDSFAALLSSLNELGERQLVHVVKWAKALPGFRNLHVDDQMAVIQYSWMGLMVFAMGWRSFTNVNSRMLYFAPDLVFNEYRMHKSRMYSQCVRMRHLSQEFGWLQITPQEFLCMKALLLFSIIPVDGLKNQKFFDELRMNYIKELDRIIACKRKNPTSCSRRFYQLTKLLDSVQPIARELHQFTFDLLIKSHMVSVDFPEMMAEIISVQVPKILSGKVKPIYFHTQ

[13] = tested on: CWR22R; assay: Downregulation of BARD1 mRNA expression in human 22Rv1 cells at 10 uM incubated for 24 hrs by qRT-PCR analysis; assay type: functional, cell-based
[14] = tested on: CWR22R; assay: Downregulation of FKBP5 mRNA expression in human 22Rv1 cells at 10 uM incubated for 24 hrs by qRT-PCR analysis; assay type: functional, cell-based
[15] = Stability in mouse plasma assessed as half life measured after 60 mins; assay type: ADME, cell-free
[16] = target: T1, Androgen receptor (Homo sapiens); assay: Induction of AR degradation in human LNCaP cells incubated for 24 hrs by Western blot analysis; assay type: cell-based; conditions: dose <= 30.0 µM
[17] = target: T1, Androgen receptor (Homo sapiens); assay: Binding affinity to AR-NTD in human 22Rv1 cels by SPR analysis
[18] = Volume of distribution at steady state in Sprague-Dawley rat at 5 mg/kg, iv by LC-MS/MS analysis; assay type: ADME, organism-based; conditions: in vivo

CC1(C)C(=O)N(c2ccc(C#N)c(C(F)(F)F)c2)C(=O)N1CCNc1ccc(F)c2ncccc12
AUC(0-t) [1]: 2870 ng·h/mL
Activity [2]: Active
bioavailability [3]: 11.9%
half-life [4]: 1.4 h
inhibition in vivo at 30 mg/kg [5]: 63%
Activity [6]: Non-Toxic
Activity [7]: Active
Activity [8]: Dose-Dependent Effect
Activity [9]: Non-Toxic
MRT inf [10]: 4.1 h
Activity [11]: Active
Activity [12]: Tde
Activity [13]: Active
Activity [14]: Active
half-life [15]: 4.78 h
Activity [16]: Dose-Dependent Effect
Activity [17]: Active
Vdss [18]: 2.5 L/kg
